In patent US12491188B2, “Small molecule PARG inhibitors and methods of use thereof” (Board of Regents, The University of Texas System, priority 2019, dated 2025):

Assays:
MRC-5 cells = details: SRB
Description: Sulforhodamine B (SRB) Cytotoxicity Assay. […] Colorimetric or fluorescence analysis was performed in a FlexStation 3, using SoftMax Pro 7.0, Molecular Devices. Normalized graphs were generated with Prism 8 software, non-linear 4-parameter data fitting was performed for IC50 calculation.

PARP1 = PARP1 (Homo sapiens (Human), UniProt P09874); experiment: In vitro PARP1 auto-PARylation
Sequence of PARP1 (P09874 whole entry): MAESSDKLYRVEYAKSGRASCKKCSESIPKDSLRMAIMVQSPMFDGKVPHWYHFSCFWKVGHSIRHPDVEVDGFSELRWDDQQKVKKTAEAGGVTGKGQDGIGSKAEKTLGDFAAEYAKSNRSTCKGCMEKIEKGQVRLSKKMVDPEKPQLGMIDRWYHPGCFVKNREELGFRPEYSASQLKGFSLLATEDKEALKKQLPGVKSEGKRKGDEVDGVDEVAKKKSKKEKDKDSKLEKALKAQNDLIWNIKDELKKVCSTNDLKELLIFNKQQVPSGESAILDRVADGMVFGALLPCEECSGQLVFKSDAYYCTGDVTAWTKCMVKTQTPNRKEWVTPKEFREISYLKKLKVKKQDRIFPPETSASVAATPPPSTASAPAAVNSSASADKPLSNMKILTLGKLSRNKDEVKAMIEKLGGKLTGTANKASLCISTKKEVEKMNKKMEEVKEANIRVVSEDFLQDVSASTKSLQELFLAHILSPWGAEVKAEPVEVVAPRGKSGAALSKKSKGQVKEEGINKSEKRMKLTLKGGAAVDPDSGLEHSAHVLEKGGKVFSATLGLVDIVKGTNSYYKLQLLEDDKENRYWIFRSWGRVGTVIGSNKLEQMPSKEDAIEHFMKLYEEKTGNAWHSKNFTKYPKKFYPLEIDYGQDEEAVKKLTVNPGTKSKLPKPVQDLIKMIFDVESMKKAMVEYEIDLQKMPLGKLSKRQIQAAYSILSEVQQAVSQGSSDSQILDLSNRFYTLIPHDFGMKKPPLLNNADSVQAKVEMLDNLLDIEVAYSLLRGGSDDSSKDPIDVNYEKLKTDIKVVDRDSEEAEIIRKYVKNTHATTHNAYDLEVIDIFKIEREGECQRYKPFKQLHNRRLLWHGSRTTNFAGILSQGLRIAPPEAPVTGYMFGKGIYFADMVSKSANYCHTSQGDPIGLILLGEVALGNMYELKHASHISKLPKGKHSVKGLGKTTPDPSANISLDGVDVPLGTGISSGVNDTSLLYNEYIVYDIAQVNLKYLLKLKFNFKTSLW

PCNA in PC3 cells = PCNA in PC3 cells (Homo sapiens (Human), UniProt P12004); experiment: Cellular thermal shift assay (CETSA), PCNA control; type: cell-based; details: 10 μM, 2 h
Sequence of PCNA in PC3 cells (P12004 whole entry): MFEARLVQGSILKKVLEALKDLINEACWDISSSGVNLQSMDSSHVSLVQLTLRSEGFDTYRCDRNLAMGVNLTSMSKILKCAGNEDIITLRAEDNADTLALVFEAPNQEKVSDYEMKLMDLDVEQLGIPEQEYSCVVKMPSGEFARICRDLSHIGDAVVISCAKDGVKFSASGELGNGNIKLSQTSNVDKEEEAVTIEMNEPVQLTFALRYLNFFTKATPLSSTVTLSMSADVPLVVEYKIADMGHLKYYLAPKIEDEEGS
Description: PC3 cells treated with 10 μM JA2131 or DMSO were temperature shocked as described in the Examples and the resulting non-aggregated proteins were analyzed with Anti-PARG or Anti-PCNA antibody. Anti-Histone H3 was used as loading control.
Cellular thermal shift assay (CETSA). CETSA was performed as described in Molina et al., 2013. Briefly, PC3 cells were treated with 10 μM JA2131 or an equivalent volume of DMSO for 2 h, washed three times with PBS and extracted for total cell lysate. 10% glycerol was added to the samples before subjecting to heat. Gradient thermal cycler (C1000 Touch, Bio-Rad) was used to heat samples at 42, 57, 66, 72, 77 and 85° C. for 3 min and chilled on ice for 5 min. Then, samples were centrifuged at 14,000 rpm for 20 min at 4° C. Supernatants were carefully removed and analyzed by Western blotting analysis.

[1] = tested on: MDA-MB-231 control and PARG-KD cells; experiment: Sulforhodamine B (SRB) cytotoxicity, control vs PARG-KD cells; type: cell-based, human; details: 72 h
Excerpt: Sulforhodamine B (SRB) Cytotoxicity Assay.

[2] = tested on: MDA-MB-231 control and PARG-KD cells; experiment: Western blot of cellular PARylation (anti-PAR); type: cell-based, human
Description: Thus, dose-dependent JA2131-induced cellular PARylation with and without IR was investigated. For combined IR treatment, MDA-MB-231 cells were treated with JA2131 for 2 h, followed by 7 Gy X-ray and then allowed to recover for an hour before cellular extraction and Western blotting analysis.
Using shRNA, next, a stable MDA-MB-231 PARG knockdown (PARG-KD) cell-line was generated (FIG. 23). Comparison of PARGi JA2131-induced PARylation in PARG-KD and control cells was performed. It was reasoned that PARG-KD cells would show a reduced response to a selective PARGi as the stable PARG-KD cells would have to adopt a PARG-independent survival mechanism. MDA-MB-231 control cells and PARG-KD cells were treated with JA2131 then total cell lysates were subjected to immunoblotting with anti-PAR antibody, followed by immunodetection for anti-PARG, PARP1 and actin antibody (FIG. 22b). Untreated PARG-KD cells show a higher baseline level of PARylation than the control cells. […] Dose-response curves comparing control and PARG-KD cells further validate the selective action of JA2131 on control cells expressing PARG, but not on the PARG-KD cells (FIG. 25).
Antibodies and western blots. Cells were grown in 6-well plates and 10 cm dishes, treated with PARGi for 2 hours, irradiated and recovered for 1 hour before harvesting. Cells were irradiated, ranging from 1 to 10 Gy using RAD SOURCE, RS-2000, Biological System, RadSource.com. Cells were washed with phosphate buffer and saline (PBS) and lysed with buffer containing 50 mM Hepes, pH 7.5, 1% (v/v) igepal-C630, 1 mg/ml bacitracin, 1 mM EDTA, 10 mM NaF, 1 mM sodium orthovanadate, 10% (v/v) glycerol, 50 mM NaCl, 1 mM PMSF, and Protease Inhibitor Cocktail Set III (EMD Millipore). The detergent-soluble fraction was used for Western blotting. Cell fractionation was carried out using the Subcellular Protein Fractionation Kit (#78840, ThermoFisher) according to the manufacturer's instruction. Primary antibodies were purchased from the following sources; Actin, γH2AX and Histone-H3 was from Cell Signaling Technology. H2AX and LAMB1 were from Invitrogen/ThermoFisher. PCNA and p53 were from Santa Cruz biotechnology. Anti-PAR (10H) was from EMD Millipore, anti-PARG was from Cell Signaling Technology, and Anti-PARP1 was from ABCAM. Secondary antibodies were conjugated HRP (Cell Signaling) and ECL Clarity was purchased from Bio-Rad. All primary and secondary antibodies were diluted 1:1000 with 5% non-fat Blotting Grade Blocking Reagent in 1× TBST, except for anti-PAR 1:500.

O=C1C(Cl)=C(Cl)C(Cl)(Cl)C(Cl)=C1Cl [JA2131]
cytotoxic dose in MRC-5 cells relative to MDA-MB-231 cells (MRC-5 cells): an order of magnitude higher
concentration up to which PARP1 activation was not inhibited (PARP1; in vitro PARP1 auto PARylation): > 100 µM
effect on PARP1 auto-PARylation / PAR synthesis by PARP1 (PARP1; increasing concentration of compound): no effect
change in thermal stability of PCNA control (PCNA in PC3 cells): no significant change
IC50 value for PARG-depleted cells compared to control cells [1]: ~10 fold
PARG-KD cells that responded to the PARGi [1]: 50%
cellular PARylation, PARGi combined with IR ([2]; MDA-MB-231, 100 nM, 2 h, 7 Gy X-ray, 1 h recovery): massive increase in cellular PARylation
cellular PARylation, PARGi alone ([2]; MDA-MB-231, without IR, 1 to 5 μM doses): dose-dependent increase in cellular PARylation
PAR accumulation in PARG-KD cells ([2]; MDA-MB-231 PARG knockdown cells): did not affect the level of PAR accumulation
PAR accumulation in control cells expressing PARG ([2]; MDA-MB-231 control cells): measurable increase in PAR
